What was measured:
[1] = system: platelet accumulation in lung graft; assay: graft platelet accumulation (111Indium-labelled platelets); format: in vivo, rat; settings: NTG 0.1 mg/mL in EC, 6 h
Description: Graft platelet accumulation was determined using ^111 Indium-labelled platelets, prepared as described^39. Blood (5.0 mL) was taken from a gender/strain matched donor rat and heparinized (2500 units). Platelets were isolated by differential centrifugation, first at 300 g for 5 minutes to obtain platelet-rich plasma, which was then washed 3 times at 2,000 g for 15 minutes in 10 ml of acid-citrate-dextrose-anticoagulant (ACD-A; citric acid 38 mM, sodium citrate 75 mM, glucose 135 mM). The pellet was suspended in 5 mL of ACD-A, centrifuged at 100 g for 5 minutes to remove contaminating red blood cells, and the supernatant collected. ^111 Indium oxyquinoline (70 μL of 1 mCi/mL, Amersham Mediphysics, Arlington Heights, Ill.) was added with gentle shaking for 30 minutes at room temperature. […] One minute following platelet infusion (immediately prior to reperfusion), 0.5 mL of blood was taken from the left atrium to determine blood radioactivity, to ascertain blood platelet concentrations to normalize for variations in blood loss during surgery. Five minutes following reperfusion, the native right pulmonary artery was ligated, the graft was removed 10 minutes thereafter, and ^111 Indium-platelet deposition quantified by gamma counting. Platelet accumulation was expressed as the ratio of graft radioactivity to blood radioactivity normalized to dry weight.

heart = settings: in vivo; cited from earlier work
[2] = system: nitric oxide in expired air; settings: in vivo; cited from earlier work
[3] = system: nitric oxide production in heart; assay: direct measurement of coronary vascular and endocardial NO with porphyrinic microsensor; set-up: species or system rat; settings: transplanted hearts
Description: Direct measurement of coronary vascular and endocardial nitric oxide synthesis were made with a porphyrinic microsensor^13 using differential pulse voltammetry or amperometry. Rat hearts were explanted and preserved as described above, and studied fresh (no preservation/transplantation) or after hypothermic preservation in lactated Ringer's (LR) solution, heterotopic transplantation, and 10 minutes of reperfusion. The coronary vasculature was flushed free of blood with LR followed by 4 ml of LR supplemented with L-Arg (2 mM) and bradykinin ([…], Sigma), which was recycled (1 ml/min) through the coronary vasculature by flushing down the cross-clamped aortic root. Aliquots of perfusate were immediately transferred to an anaerobic environment for measurements and compared to an aqueous nitric oxide reference. Differential pulse voltammograms were obtained using a sensor (working electrode), saturated calomel electrode reference, and platinum wire-auxiliary electrode, with a pulse amplitude of 40 mV. Endocardial NO was measured by implanting the sensor in the septal endocardium of a freshly explanted or preserved/transplanted heart, and after the baseline stabilization, […] bradykinin was applied and NO release continuously monitored by amperometry at constant potential of 0.63 V.

lung = assay: orthotopic rat left lung transplantation, cGMP series (hemodynamics, oxygenation, recipient survival); format: in vivo, rat (male Lewis)
Description: Orthotopic rat left lung transplantation was accomplished using inbred male Lewis rats (250-300 gms), using a modification of a previously described technique^29. The donor rat was anesthetized and heparinized (500 U intravenously), and endotracheal intubation was performed by inserting a 16 gauge angiocatheter into the trachea using blunt cervical dissection, after which the rat was ventilated with room air at a constant rate (100 breaths/minute) and tidal volume (2.5 ml), using a Harvard rodent ventilator. […] The pulmonary artery (PA) and pulmonary vein (PV) were divided, the bronchus ligated with the lung partially inflated and then divided, and the lung removed. The vascular stumps were each pulled through a small plastic cylinder, and a lip of vessel was turned back around the edge and secured in place with a suture to form a "cuff." A small plastic cylinder was inserted into the bronchial stump and secured, and the lung was then wrapped in gauze and submerged in cold preservation solution for the desired interval.
The recipient rat (gender/size/strain-matched) was similarly anesthetized and intubated (ventilated with 100% oxygen), but not heparinized. A left thoracotomy was performed, the hilum was dissected, and the left bronchus, PA, and PV were isolated, cross-clamped, divided and the native lung was removed from the field. The PA and PV stumps were rinsed with heparinized saline to remove any clot. The donor lung was brought onto the surgical field, and the cylinder (bronchus) and cuffs (PA and PV) were connected rapidly to their respective structures with a simple staying suture. This cuff technique permitted rapid approximation of donor and recipient tissues with no contact of a foreign substance with the luminal vascular surface. The hilar cross-clamp was released, re-establishing blood flow, and the bronchus tie was removed, enabling gas exchange. A snare was then passed around the right PA, and a Millar catheter (2F; Millar Instruments,Houston, Tex.) was introduced through a small hole (surrounded by a pursestring) into the main PA; similarly, a Millar catheter was introduced into the left atrium (LA). A flow probe (Transonics, Ithaca, N.Y.) was then placed around the main PA. Arterial blood gas sampling performed via the left femoral artery.
Online hemodynamic monitoring was accomplished using MacLab and a Macintosh IIci computer. The hemodynamic parameters that were measured included PA pressure (mm Hg), blood flow (ml/min), LA pressure (mm Hg), as well as arterial oxygen tension (mm Hg) during inspiration of 100% oxygen; pO2 was analyzed with a model ABL-2 dissolved gas analyzer (Radiometer, Copenhagen, Denmark). Pulmonary vascular resistances (PVRs) were calculated as [mean PA pressure-LA pressure]/PA flow. The native lung supported the recipient during the period of warm ischemia (the period during which the donor lung was removed from cold preservation until the time of reperfusion, <10 min. in all instances), but immediately following rapid hemodynamic instrumentation and acquisition of baseline measurements, the native (right) PA was then ligated, and serial measurements (representative solely of the transplanted lung) were taken every five minutes for 30 minutes. Because the native lung was effectively removed from the circulation by ligation of the right PA, these measurements represent function of the transplanted lung. Recipient death was identified by the cessation of cardiac mechanical activity observed through the thoracotomy.
Preservation solutions were freshly made and coded by a technician not otherwise involved in the experiments, according to a general plan which included both control and experimental groups. […]

[4] = 6 h in EC, 8-Br-cGMP 0.5 mM where added

O=[N+]([O-])OCC(CO[N+](=O)[O-])O[N+](=O)[O-] [NTG, nitroglycerin]
graft platelet accumulation [1]: significant decline in both neutrophil and platelet accumulation | effect in cardiac ischemia models (heart): blunt myocardial injury and neutrophil accumulation during reperfusion | nitric oxide in expired air [2]: increase nitric oxide in expired air

Nc1nc2c(nc(Br)n2[C@@H]2O[C@@H]3COP(=O)(O)O[C@H]3[C@H]2O)c(=O)[nH]1 [8-Br-cGMP, 8-bromoguanosine-3'5' cyclic monophosphate]
effect on NO levels [3]: did not alter NO levels | recipient survival (lung; 4 h preservation in LR): 86% | arterial oxygenation (lung; [4]): 474±41 mm Hg | pulmonary arterial blood flow (lung; [4]): 26 ± 2.3 mL/min | pulmonary vascular resistance (lung; [4]): 1.1±0.14 Woods units×10^-3 | recipient survival (lung; [4]): 100% | concentration of maximal beneficial effect (lung; range 0.005 to 0.5 mM, 6 h in EC): 0.5 mM

Reference: patent US5552267A, “Solution for prolonged organ preservation” (priority 1994, dated 1996)
